In US5612317A, “Method for delivering estrogen” (priority 1994, dated 1997):
Values belong to the compound of their own block, whether it stands above or below them.

Assays:
[1] = injected into normal women; cited from earlier work
[2] = Side-effects and vaginal bleeding in ovariectomized rats dosed orally for two weeks; assay type: in vivo
Excerpt: Based on the results in rats and humans with the model vitamin D-3β-glucoside and experience with giving estradiol-3-(β-glucoside) to ovariectomized rats, there is no indication of potential additive or multiplicative toxicity.

[3] = Circulating concentration of 17β-estradiol and estrone in ovariectomized rats after daily oral dosing for two weeks (radioimmunoassay); assay type: in vivo; details: six ovariectomized rats per group
Experimental: De-conjugation of estradiol-3-(β-glucoside) to estradiol will occur slowly in peripheral tissues, and therefore, will maintain circulating levels of estradiol at a more physiologic level for a longer period of time. A study in humans with the vitamin D-3β-glucoside was conducted as a model compound. The blood level of vitamin D after an equimolar dose of vitamin D3 and vitamin D3 -3β-glucoside was compared. […] Thus, from this single dose vitamin D-glucoside study, there would not appear to be any hazard to the prolonged duration of action of the estradiol resulting from the slow de-conjugation of the estradiol-3-(β-glucoside). A study in ovariectomized rats was also conducted to determine the blood level of estradiol and estrone after receiving three different doses of either estradiol or estradiol-3-(β-glucoside) orally each day for two weeks. […] Thus, estradiol-3-(β-glucoside) will increase circulating concentrations of estradiol.
In vivo rat studies were carried out where estradiol-3-(β-glucoside) was given orally for two weeks to ovariectomized rats.
Circulating concentration of 17β-estradiol and estrone
in six ovariectomized rats per group that received an oral
dose of either 17β-estradiol or 17β-estradiol-3 β-
glucoside (estradiol-glc) each day for two weeks.

[4] = system: estradiol receptor; details: "there is evidence"; no method given; cited from earlier work
[5] = Incubation of 3H-vitamin D3-glucoside with rat kidney homogenate, reverse phase HPLC; assay type: in vitro ADME; details: 3 hours at 37° C
Experimental: FIG. 1C depicts reverse phase HPLC (2% H2 O/methanol, 1.5 ml/min) of ^3 H-vitamin D3 -glucoside after incubation with rat kidney homogenate for 3 hours at 37° C.
(§1) A study was conducted whereby ^3 H-vitamin D3 -3β-glucoside was incubated with intestine and kidney homogenates. […] Therefore, the same results for estradiol-3β-glucoside would be expected since vitamin D and estradiol are both fat soluble sterols.

[6] = Incubation of 3H-vitamin D3-glucoside with rat intestinal homogenate, reverse phase HPLC; assay type: in vitro ADME; details: 3 hours at 37° C
Experimental: FIG. 1A and FIG. 1B depict reverse phase HPLC (2% H2 O/methanol, 1.5 ml/min) of ^3 H-vitamin D3 -glucoside before (FIG. 1A) and after (FIG. 1B) incubation with rat intestinal homogenate for 3 hours at 37° C.
as §1

[7] = listed as 3 H-vitamin D3 -glucoside

Compound: C[C@]12CC[C@@H]3c4ccc(O)cc4CC[C@H]3[C@@H]1CC[C@H]2O[C@@H]1O[C@H](CO)[C@@H](O)[C@H](O)[C@H]1O [17α-estradiol-17-glucoside]
Metabolite recovered in urine [1]: the 3-glucuronide derivatives of each compound were recovered in the urine

Compound: C[C@]12CC[C@@H]3c4ccc(O)cc4CC[C@H]3[C@@H]1CC[C@@H]2OC1O[C@H](CO)[C@@H](O)[C@H](O)[C@H]1O (stereo partly drawn) [17β-estradiol-17-glucoside]
Metabolite recovered in urine [1]: the 3-glucuronide derivatives of each compound were recovered in the urine

Compound: C[C@]12CC[C@@H]3c4ccc(O)cc4CC[C@H]3[C@@H]1CC[C@@H]2O [estradiol, 17β-estradiol, reference compound]
Untoward side-effects or vaginal bleeding ([2]; oral, two weeks, ovariectomized rats): No untoward side-effects or vaginal bleeding was noted
Blood concentration of estradiol ([3]; dose 1, each day for two weeks): 3.5 ± 0.7 pg/mL
Blood concentration of estradiol ([3]; dose 10, each day for two weeks): 8.7 ± 2.1 pg/mL
Blood concentration of estradiol ([3]; dose 15, each day for two weeks): 46.8 ± 10.4 pg/mL

Compound: C[C@]12CC[C@@H]3c4ccc(O[C@@H]5O[C@H](CO)[C@@H](O)[C@H](O)[C@H]5O)cc4CC[C@H]3[C@@H]1CC[C@@H]2O [estradiol-glc, 17β-estradiol-3β-glucoside]
Untoward side-effects or vaginal bleeding ([2]; rat, in vivo, po): No untoward side-effects or vaginal bleeding was noted
Interaction with the estradiol receptor [4]: does not interact with the estradiol receptor

De-conjugation of the glucoside / formation of 3H-vitamin D3 [5, 7]: formation of ^3 H-vitamin D3
Metabolism of the glucoside / formation of 3H-vitamin D3 [6, 7]: No ^3 H-vitamin D3 was formed
Compound: C=C1CC[C@H](O[C@@H]2O[C@H](CO)[C@@H](O)[C@H](O)[C@H]2O)C/C1=C/C=C1\CCC[C@]2(C)[C@@H]([C@H](C)CCCC(C)C)CC[C@@H]12 [vitamin D3 -3β-glucoside]
De-conjugation of the glucoside / formation of 3H-vitamin D3 ([5]; listed as 3 H-vitamin D3 -3β-glucoside): only the kidney homogenate was capable of removing the glucoside from vitamin D3
De-conjugation of the glucoside / formation of 3H-vitamin D3 ([5]; listed as vitamin D-3β-glucoside): β-glucosidase(s) in the kidney are able to de-conjugate the β-glucoside from the vitamin D-3β-glucoside
Metabolism of the glucoside / formation of 3H-vitamin D3 [6]: None of the vitamin D3 -3β-glucoside was metabolized in the intestinal homogenates
